Assay [1] has as its target Inward rectifier potassium channel 2 (Mus musculus, UniProt P35561). The assay is described as follows: Manual electrophysiological patch clamp assay for SAR compounds that inhibit/block inward-rectifying potassium ion channel Kir2.1. [Related pubchem assays: 1843 (Summary assay for Kir2.1 inhibitor assays.), 1672 (Primary HTS of 305616 compounds where 2592 were identified as active.)]. In kind it is functional. (Patch clamp records ionic current or voltage across a cell membrane.)

The next assay concerns the target Bcl-2-like protein 1 (Homo sapiens, UniProt Q07817). The assay is described as follows: BCL-XL inhibitors, dose response, selectivity assay for MCL1 inhibitor project, biochemical, fluorescence polarization, 1536-well (AID 2218).
Assay [2] deals with Induced myeloid leukemia cell differentiation protein Mcl-1 (Homo sapiens, UniProt Q07820). The assay is described as follows: MCL1-BIM BH3 interaction inhibitors, dose response, biochemical, fluorescence polarization, BIM-BH3 peptide, 1536-well (AID 2217).
Assay [3] is described as follows: Luminescence-based counterscreen assay for KLF5 inhibitors: dose response cell-based high throughput screening assay to identify cytotoxic compounds using the IEC-6 intestinal epithelial cell line. [Related pubchem assays: 1700 (Primary screen.), 1834 (Confirmation screen.), 1858 (Summary AID.), 1905 (Counterscreen.)]. The class given is functional.
For another assay, the target named is Bcl-2-like protein 10 (Homo sapiens, UniProt Q9HD36). The assay is described as follows: Biochemical TR3 FP assay of Bcl-B inhibitor potency, EC50 (AID 1243). The class given is functional.
A short description of assay [4]: inhibitors of Bluetongue virus cytopathic effect, confirmation, arbovirus, BSR cells (AID 1250).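 Note: protection from viral cytopathic effect measured as cell viability by ATP luminescence.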 The class given is functional. For orientation: Damage to the host cells serves as the signal in cytopathic effect assays.
For assay [5], the target named is T1, Serine/threonine-protein phosphatase (Candida dubliniensis (strain CD36 / CBS 7987 / NCPF 3949 / NRRLY-17841) (Yeast), UniProt B9W6M3).
T1 sequence (B9W6M3 whole entry): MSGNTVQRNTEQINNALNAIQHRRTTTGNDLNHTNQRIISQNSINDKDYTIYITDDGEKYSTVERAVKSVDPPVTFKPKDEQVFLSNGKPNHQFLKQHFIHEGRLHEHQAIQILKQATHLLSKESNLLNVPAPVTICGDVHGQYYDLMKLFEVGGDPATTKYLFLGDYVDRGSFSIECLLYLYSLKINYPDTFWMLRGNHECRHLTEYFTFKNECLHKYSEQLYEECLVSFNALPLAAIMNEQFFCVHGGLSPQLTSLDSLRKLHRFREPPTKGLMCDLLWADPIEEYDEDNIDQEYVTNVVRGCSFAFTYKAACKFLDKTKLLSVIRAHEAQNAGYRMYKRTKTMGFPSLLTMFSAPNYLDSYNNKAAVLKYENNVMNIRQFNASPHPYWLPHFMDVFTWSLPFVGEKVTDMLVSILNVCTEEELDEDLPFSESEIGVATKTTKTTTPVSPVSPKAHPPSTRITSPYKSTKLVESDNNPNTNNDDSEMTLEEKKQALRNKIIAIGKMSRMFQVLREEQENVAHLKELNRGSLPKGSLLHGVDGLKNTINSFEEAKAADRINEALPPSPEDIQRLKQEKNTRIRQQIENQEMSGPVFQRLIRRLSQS
The assay is described as follows: calcineurin pathway inhibitors in yeast reporter, dose response, S. cerevisiae, CDRE-lacZ, luminescence, secondary (AID 2388).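 Note: yeast reporter cells carrying a calcineurin-responsive lacZ construct stimulated with calcium chloride; luminescent beta-galactosidase reporter signal in whole cells rather than isolated phosphatase activity; potency for inhibition where a drop in reporter signal means calcineurin blockade.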 The class given is functional, cell-based.

Assay [6] has as its target T2, RNA-binding protein pos-1 (Caenorhabditis elegans, UniProt G5EF15).
T2 sequence (G5EF15 whole entry): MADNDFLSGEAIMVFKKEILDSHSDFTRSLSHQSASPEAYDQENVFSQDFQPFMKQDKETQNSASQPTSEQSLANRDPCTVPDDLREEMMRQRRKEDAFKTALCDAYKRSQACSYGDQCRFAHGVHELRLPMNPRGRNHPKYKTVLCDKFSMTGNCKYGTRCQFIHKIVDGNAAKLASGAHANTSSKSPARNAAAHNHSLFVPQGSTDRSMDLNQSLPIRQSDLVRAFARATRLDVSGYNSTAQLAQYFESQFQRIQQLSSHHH
The experiment in a line: inhibitors of POS-1/mex-3 RNA binding, dose response, biochemical, fluorescence polarization (AID 1964).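 Note: purified POS-1 fused to maltose binding protein made in E. coli; potency of compounds blocking POS-1 binding to fluorescent RNA.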

In assay [7] the target is T3, Zinc finger protein mex-5 (Caenorhabditis elegans, UniProt Q9XUB2).
T3 sequence (Q9XUB2 whole entry): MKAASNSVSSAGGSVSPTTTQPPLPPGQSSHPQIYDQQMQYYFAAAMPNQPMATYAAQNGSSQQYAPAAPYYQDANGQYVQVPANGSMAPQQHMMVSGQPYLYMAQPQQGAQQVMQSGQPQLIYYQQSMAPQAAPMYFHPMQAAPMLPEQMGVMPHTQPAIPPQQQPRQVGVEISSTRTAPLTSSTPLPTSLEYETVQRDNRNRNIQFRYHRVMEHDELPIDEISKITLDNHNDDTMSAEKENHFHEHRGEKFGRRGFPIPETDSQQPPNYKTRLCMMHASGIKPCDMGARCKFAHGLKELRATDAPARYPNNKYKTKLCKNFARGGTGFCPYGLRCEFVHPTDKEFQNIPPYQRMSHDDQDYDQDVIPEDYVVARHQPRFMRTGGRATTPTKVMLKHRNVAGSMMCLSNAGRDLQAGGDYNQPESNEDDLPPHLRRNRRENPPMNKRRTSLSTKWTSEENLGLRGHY
The assay is described as follows: MEX-5/TCR-2 RNA interaction inhibitors, dose response, biochemical, C. elegans, fluorescence polarization (AID 1960). For orientation: Fluorescence polarisation rises when a labelled molecule tumbles more slowly, as on binding a larger partner.

Assay [8] addresses ATP-dependent molecular chaperone HSP82 (Candida albicans (strain WO-1) (Yeast), UniProt C4YTQ8). The assay is described as follows: loss of DOC-induced GRE-beta-galactosidase reporter signal, dose response, Hsp90 inhibitor project, S. cerevisiae, luminescence (AID 2400).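 Note: beta-galactosidase luminescence from glucocorticoid response element reporter as proxy for Hsp90 function; inhibitor potency where signal loss means Hsp90 inhibition.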 In kind it is functional, cell-based.
Assay [9] is described as follows: NIH-3T3 fibroblast cytotoxicity, dose response, cytotoxicity control, cell-based, fluorescence, Alamar Blue, secondary assay (AID 2327).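 Note: NIH-3T3 mouse fibroblasts cultured with fluconazole at 8 µg/mL.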 In kind it is functional.
Assay [10] has as its target Protein-tyrosine kinase 2-beta (Homo sapiens, UniProt Q14289).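 Note: potency of inhibitors of PYK2 kinase phosphorylation of poly-GT substrate.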
In another assay the target is Prothrombin (Bos taurus, UniProt P00735). The assay is described as follows: thrombin inhibition, dose response, biochemical, fluorescence polarization, uHTS hits (AID 602369). The class given is functional.
Assay [11] addresses 26S proteasome non-ATPase regulatory subunit 14 (Homo sapiens, UniProt O00487). The assay is described as follows: inhibition of proteasome subunit RPN11 – biochemical, fluorescence polarization, uHTS hits, confirmation (AID 602368). The class given is functional.
A short description of assay [12]: C. albicans growth with fluconazole, confirmation, fluorescence, retest (AID 2467). In kind it is functional, cell-based.
Assay [13] in a line: growth suppression of PTEN-null colon cells, dose response, cell-based, HCT116 PTEN knockout (AID 1047).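 Note: HCT116 colon tumor cells with PTEN knocked out; cells exposed to compound for 60 hours before readout; potency for loss of cell viability measured by luminescence.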 In kind it is functional.
Assay [14] concerns the target 72 kDa type IV collagenase (Homo sapiens, UniProt P08253). The assay is described as follows: Dose Response validation of uHTS RPN11 inhibitor hits using a MMP-2 Fluorescence assay. The class given is functional.
Assay [15] can be described thus: growth suppression of beta-catenin-knockout colon cells, dose response, cell-based, HCT116, human colon tumor (AID 1045).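 Note: HCT116 colon tumor cells with beta catenin knocked out; cells exposed to compound for 60 hours.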 The class given is functional.

Active and inactive are the calls of the source. A value given as a limit tells only on which side of the number the result lay.

One may read the IC50 as the concentration at which inhibition is half-maximal. By EC50 is commonly meant the concentration giving half of the maximal effect.

Inward rectifier potassium channel 2, sequence (P35561 whole entry): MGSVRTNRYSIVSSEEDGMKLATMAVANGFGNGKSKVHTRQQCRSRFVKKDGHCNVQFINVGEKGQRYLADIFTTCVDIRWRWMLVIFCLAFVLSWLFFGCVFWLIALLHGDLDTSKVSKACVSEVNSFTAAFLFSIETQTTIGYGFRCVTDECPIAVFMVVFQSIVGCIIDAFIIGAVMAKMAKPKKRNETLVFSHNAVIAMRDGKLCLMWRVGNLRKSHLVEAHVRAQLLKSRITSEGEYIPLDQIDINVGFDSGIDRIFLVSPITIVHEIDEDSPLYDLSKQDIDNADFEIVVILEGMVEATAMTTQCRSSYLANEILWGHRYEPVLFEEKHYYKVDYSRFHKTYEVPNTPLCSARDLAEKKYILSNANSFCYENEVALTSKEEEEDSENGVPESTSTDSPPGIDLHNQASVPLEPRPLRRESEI
Protein-tyrosine kinase 2-beta, sequence (Q14289 whole entry): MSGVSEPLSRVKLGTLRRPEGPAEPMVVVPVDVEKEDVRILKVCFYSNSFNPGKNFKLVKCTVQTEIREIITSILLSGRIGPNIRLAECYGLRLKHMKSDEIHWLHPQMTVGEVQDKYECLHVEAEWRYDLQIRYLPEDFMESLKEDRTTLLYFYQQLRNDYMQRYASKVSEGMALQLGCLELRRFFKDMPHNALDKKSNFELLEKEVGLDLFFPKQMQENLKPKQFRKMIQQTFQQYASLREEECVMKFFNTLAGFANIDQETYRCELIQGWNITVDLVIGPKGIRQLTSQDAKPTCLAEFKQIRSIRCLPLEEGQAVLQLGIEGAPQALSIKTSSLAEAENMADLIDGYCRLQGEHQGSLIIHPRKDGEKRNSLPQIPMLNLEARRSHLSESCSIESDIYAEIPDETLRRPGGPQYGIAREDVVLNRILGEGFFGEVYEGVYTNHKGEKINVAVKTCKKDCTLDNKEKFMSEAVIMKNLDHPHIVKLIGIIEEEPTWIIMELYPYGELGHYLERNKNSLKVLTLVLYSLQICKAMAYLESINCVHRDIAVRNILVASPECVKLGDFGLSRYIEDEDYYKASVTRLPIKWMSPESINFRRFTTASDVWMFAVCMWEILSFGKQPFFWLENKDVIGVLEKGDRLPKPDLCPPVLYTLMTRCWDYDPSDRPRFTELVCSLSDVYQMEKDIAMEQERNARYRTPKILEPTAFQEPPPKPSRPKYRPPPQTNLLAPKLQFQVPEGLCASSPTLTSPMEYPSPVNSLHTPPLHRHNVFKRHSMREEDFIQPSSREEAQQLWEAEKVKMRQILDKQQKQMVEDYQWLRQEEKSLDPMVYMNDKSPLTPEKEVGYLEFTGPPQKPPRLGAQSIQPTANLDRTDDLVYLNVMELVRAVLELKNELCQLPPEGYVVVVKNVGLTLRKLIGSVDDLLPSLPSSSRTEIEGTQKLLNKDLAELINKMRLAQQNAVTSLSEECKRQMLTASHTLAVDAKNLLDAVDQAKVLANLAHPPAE
ATP-dependent molecular chaperone HSP82, sequence (C4YTQ8 whole entry): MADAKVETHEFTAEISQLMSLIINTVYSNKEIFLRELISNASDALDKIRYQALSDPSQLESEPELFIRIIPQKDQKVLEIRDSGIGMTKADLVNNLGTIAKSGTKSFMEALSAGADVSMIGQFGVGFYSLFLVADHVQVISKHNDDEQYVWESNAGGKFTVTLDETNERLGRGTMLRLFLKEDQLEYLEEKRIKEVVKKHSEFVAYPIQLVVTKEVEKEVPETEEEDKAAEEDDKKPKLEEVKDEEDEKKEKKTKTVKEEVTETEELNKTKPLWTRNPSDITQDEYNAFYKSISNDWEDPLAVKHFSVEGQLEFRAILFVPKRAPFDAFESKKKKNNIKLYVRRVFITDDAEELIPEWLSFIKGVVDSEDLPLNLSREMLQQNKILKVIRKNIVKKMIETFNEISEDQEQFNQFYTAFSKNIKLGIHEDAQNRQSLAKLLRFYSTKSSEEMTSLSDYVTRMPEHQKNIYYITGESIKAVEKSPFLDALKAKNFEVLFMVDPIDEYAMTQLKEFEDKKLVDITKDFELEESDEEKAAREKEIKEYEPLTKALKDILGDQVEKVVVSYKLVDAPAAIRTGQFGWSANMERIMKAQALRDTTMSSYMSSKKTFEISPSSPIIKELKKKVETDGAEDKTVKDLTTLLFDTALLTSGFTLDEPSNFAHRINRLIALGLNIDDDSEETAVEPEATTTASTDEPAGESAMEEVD
Induced myeloid leukemia cell differentiation protein Mcl-1, sequence (Q07820 whole entry): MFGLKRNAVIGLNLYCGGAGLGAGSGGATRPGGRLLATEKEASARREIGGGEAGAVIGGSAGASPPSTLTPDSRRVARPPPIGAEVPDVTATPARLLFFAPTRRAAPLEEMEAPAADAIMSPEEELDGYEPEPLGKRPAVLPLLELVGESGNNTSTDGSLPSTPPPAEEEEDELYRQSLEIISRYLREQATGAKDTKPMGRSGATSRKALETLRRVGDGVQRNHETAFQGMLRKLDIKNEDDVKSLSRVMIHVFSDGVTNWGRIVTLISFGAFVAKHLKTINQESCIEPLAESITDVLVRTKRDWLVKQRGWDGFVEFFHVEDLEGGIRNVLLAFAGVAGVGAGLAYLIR
26S proteasome non-ATPase regulatory subunit 14, sequence (O00487 whole entry): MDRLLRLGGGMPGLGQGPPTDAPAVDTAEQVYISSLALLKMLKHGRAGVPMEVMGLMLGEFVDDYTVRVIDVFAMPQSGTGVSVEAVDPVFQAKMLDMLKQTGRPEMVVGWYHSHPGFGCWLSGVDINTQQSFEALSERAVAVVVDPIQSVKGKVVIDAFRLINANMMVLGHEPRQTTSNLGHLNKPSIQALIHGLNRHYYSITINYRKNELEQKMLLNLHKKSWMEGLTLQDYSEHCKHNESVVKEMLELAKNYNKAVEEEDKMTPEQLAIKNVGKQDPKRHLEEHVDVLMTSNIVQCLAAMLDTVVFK
72 kDa type IV collagenase, sequence (P08253 whole entry): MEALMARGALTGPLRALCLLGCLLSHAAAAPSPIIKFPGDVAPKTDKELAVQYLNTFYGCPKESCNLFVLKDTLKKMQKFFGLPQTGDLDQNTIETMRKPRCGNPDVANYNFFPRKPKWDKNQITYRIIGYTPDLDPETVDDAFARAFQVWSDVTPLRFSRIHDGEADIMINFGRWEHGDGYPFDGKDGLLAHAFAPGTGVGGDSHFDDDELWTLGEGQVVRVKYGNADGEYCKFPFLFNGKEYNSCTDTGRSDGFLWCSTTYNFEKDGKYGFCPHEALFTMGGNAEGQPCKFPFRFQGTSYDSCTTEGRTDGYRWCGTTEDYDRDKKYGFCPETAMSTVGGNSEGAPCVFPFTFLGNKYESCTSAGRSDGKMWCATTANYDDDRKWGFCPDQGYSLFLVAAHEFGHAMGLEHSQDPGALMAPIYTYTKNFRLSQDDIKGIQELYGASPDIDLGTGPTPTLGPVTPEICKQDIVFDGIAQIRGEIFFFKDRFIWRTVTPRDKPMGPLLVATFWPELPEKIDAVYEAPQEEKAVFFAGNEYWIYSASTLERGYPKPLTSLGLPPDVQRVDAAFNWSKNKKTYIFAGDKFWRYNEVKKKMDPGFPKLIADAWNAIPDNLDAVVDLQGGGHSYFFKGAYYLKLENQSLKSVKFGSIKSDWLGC
Bcl-2-like protein 1, sequence (Q07817 whole entry): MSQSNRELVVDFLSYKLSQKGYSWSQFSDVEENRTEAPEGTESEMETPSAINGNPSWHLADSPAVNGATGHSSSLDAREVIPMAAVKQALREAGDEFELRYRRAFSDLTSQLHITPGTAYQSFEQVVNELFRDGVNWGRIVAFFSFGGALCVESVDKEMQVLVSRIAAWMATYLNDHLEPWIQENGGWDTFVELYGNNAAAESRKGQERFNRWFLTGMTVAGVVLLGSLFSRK
Bcl-2-like protein 10, sequence (Q9HD36 whole entry): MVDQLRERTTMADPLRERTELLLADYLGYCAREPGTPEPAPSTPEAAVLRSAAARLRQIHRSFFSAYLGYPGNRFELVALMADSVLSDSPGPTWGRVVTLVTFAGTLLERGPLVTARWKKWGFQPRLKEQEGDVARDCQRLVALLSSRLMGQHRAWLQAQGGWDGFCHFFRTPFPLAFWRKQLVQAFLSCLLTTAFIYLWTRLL

In the case of `COc1ccc(CNCc2ccc(C(C)(C)C)cc2)cc1`, the IC50 in assay [1] is 1.27 µM (active).

Consider `CCOC(=O)C[C@H]1c2ccc(C(F)(F)F)cc2S(=O)(=O)N1c1cccc(OC)c1`, for which the concentration for half-maximal inhibition (IC50) (at Bcl-2-like protein 1; in [2]) was > 109 µM (not active) each time.

Regarding `O=C(N/N=C/c1cccc(Oc2ccccc2)c1)c1ccccc1F`, the IC50 in assay [3] was 18.7 µM (not active).

In the case of `Cc1ccc(C)n1-c1cc(C(=O)O)cc(C(=O)O)c1`, the EC50 on Bcl-2-like protein 10 is 0.54 µM (active).

With `CCNC(=O)NC(=O)C(C)Sc1nc2cc(C(=O)OC)ccc2c(=O)n1-c1ccccc1` (stereo not drawn), the IC50 in assay [4] was 28.9 µM (active).

For the compound `COC(=O)c1ccc(COc2ccc(/C=C(\C#N)c3nc4ccccc4[nH]3)cc2OC)o1`, the EC50 is > 180 µM (inactive) in [5]; > 300 µM (not active) in [6]; > 300 µM (not active) in assay [7]; > 160 µM (inactive) in assay [8]; > 160 µM (inconclusive) in assay [9]; 3.83 µM (active) in assay [12]. Besides, the EC50 in assay [13] is 79.7 µM (active); in assay [15], 88.4 µM (active). Further, the IC50 in assay [10] was > 69.5 µM (not active); at Prothrombin, 11.4 µM (active); in [11], 4.93 µM (active); in assay [14], > 100 µM (inactive).

For the origin of these results see ChEMBL document CHEMBL1201862, “PubChem BioAssay data set” (2004).
